One substance from paper PMC3569039 (Bioorganic & medicinal chemistry letters, 2011) can be followed below.

This series relates to HeLa cells.

In the case of Fluo-3, the “cellular debris in treated cells (apparent cytotoxicity)” value is given as “significant amount of cellular debris”.
